For the first experiment, the target named is T1, human MGL from HeLa cells (Homo sapiens, UniProt Q99685).
T1 construct: combining endogenously expressed MGL from HeLa cells with test compounds; endogenous in cells; host or cells: HeLa cells / cell homogenates
T1 sequence (Q99685 1-303): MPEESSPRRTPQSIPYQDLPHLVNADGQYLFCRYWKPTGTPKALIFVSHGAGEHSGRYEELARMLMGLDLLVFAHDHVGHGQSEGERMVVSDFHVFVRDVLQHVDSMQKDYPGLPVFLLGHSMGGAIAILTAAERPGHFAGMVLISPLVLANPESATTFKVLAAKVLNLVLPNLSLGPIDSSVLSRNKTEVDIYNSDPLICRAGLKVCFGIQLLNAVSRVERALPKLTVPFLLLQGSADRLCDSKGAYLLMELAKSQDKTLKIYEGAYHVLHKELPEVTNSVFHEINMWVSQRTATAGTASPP
Kind of experiment: In vitro MGL activity assay: [glycerol-1,3-3H]-oleyl glycerol cleavage by MGL from HeLa cells. The settings on record: 300 nM [Glycerol-1,3-3H]-oleyl glycerol, one hour. The format is biochemical. An excerpt:
MGL is the predominant hydrolase in HeLa cells/cell homogenates.
Regarding `C[C@H]1c2nn(C)c(-c3cc(F)c(F)c(F)c3)c2CCN1C(=O)c1cncc2c(F)cccc12` [Example 546, [(7S)-2,7-Dimethyl-3-(3,4,5-trifluorophenyl)-5,7-dihydro-4H-pyrazolo[3,4-c]pyridin-6-yl]-(8-fluoro-4-isoquinolyl)methanone], half-maximal inhibition (IC50) required 5.06 nM.
Same read-out and setting: next, `C[C@H]1c2nn(C)c(-c3cc(F)c(F)c(F)c3)c2CCN1C(=O)c1cnc2n1CCCC2` [Example 560, [(7S)-2,7-Dimethyl-3-(3,4,5-trifluorophenyl)-5,7-dihydro-4H-pyrazolo[3,4-c]pyridin-6-yl]-(5,6,7,8-tetrahydroimidazo[1,2-a]pyridin-3-yl)methanone]: 120 nM.
Same read-out and setting: next, `C[C@H]1c2nn(C)c(-c3cc(F)c(F)c(F)c3)c2CCN1C(=O)c1cnn2cc(F)ccc12` [Example 384, [(7S)-2,7-Dimethyl-3-(3,4,5-trifluorophenyl)-5,7-dihydro-4H-pyrazolo[3,4-c]pyridin-6-yl]-(6-fluoropyrazolo[1,5-a]pyridin-3-yl)methanone]: 44 nM; `C[C@H]1c2nn(C)c(-c3ccc(F)c(Cl)c3)c2CCN1C(=O)c1ccc2ncccc2c1` [Example 505, [(7S)-3-(3-Chloro-4-fluoro-phenyl)-2,7-dimethyl-5,7-dihydro-4H-pyrazolo[3,4-c]pyridin-6-yl]-(6-quinolyl)methanone]: 7.38 nM; `C[C@H]1c2nn(C)c(-c3ccc(OC(F)F)nc3)c2CCN1C(=O)c1ccc2ncccc2c1` [Example 527, [(7S)-3-[6-(Difluoromethoxy)-3-pyridyl]-2,7-dimethyl-5,7-dihydro-4H-pyrazolo[3,4-c]pyridin-6-yl]-(6-quinolyl)methanone]: 278 nM.
On the same count and under the same terms, next, `COc1ncc(-c2c3c(nn2C)[C@H](C)N(C(=O)c2ccc4ncccc4c2)CC3)cc1C(F)(F)F` [Example 530, [(7S)-3-[6-Methoxy-5-(trifluoromethyl)-3-pyridyl]-2,7-dimethyl-5,7-dihydro-4H-pyrazolo[3,4-c]pyridin-6-yl]-(6-quinolyl)methanone]: 130 nM; `C[C@H]1c2nn(C)c(-c3cc(F)c(F)c(F)c3)c2CCN1C(=O)c1cnn(C)c1C1CCC1` [Example 333, (5-Cyclobutyl-1-methyl-pyrazol-4-yl)-[(7S)-2,7-dimethyl-3-(3,4,5-trifluorophenyl)-5,7-dihydro-4H-pyrazolo[3,4-c]pyridin-6-yl]methanone]: 25.4 nM.
`C[C@H]1c2nn(C)c(-c3cc(F)c(F)c(F)c3)c2CCN1C(=O)c1c(C(F)(F)F)nc2ccccn12` [Example 413, [(7S)-2,7-Dimethyl-3-(3,4,5-trifluorophenyl)-5,7-dihydro-4H-pyrazolo[3,4-c]pyridin-6-yl]-[2-(trifluoromethyl)imidazo[1,2-a]pyridin-3-yl]methanone] yielded an IC50 of 23 nM.
On the same count and under the same terms, next, `C[C@H]1c2nn(C)c(-c3ccccc3C(F)(F)F)c2CCN1C(=O)c1ccc2ncccc2c1` [Example 493, [(7S)-2,7-Dimethyl-3-[2-(trifluoromethyl)phenyl]-5,7-dihydro-4H-pyrazolo[3,4-c]pyridin-6-yl]-(6-quinolyl)methanone]: 2360 nM; `C[C@H]1c2nn(C)c(-c3cc(F)c(F)c(F)c3)c2CCN1C(=O)c1nc(C(F)(F)F)n2ccncc12` [Example 463, [(7S)-2,7-Dimethyl-3-(3,4,5-trifluorophenyl)-5,7-dihydro-4H-pyrazolo[3,4-c]pyridin-6-yl]-[3-(trifluoromethyl)imidazo[1,5-a]pyrazin-1-yl]methanone]: 19.8 nM; `C[C@H]1c2nn(C)c(-c3cc(F)c(F)c(F)c3)c2CCN1C(=O)c1cnc2c(c1)CCCO2` [Example 563, 3,4-Dihydro-2H-pyrano[2,3-b]pyridin-6-yl-[(7S)-2,7-dimethyl-3-(3,4,5-trifluorophenyl)-5,7-dihydro-4H-pyrazolo[3,4-c]pyridin-6-yl]methanone]: 329 nM.
Still for that read-out and setting: the value for `COc1nccc(C(=O)N2CCc3c(nn(C)c3-c3cccc(C(C)(F)F)c3)[C@@H]2C)c1C` [Example 594, [(7S)-3-[3-(1,1-Difluoroethyl)phenyl]-2,7-dimethyl-5,7-dihydro-4H-pyrazolo[3,4-c]pyridin-6-yl]-(2-methoxy-3-methyl-4-pyridyl)methanone] was 335 nM; that for `C[C@H]1c2nn(C)c(-c3cc(F)c(F)c(F)c3)c2CCN1C(=O)c1cnc2n1CCOC2` [Example 562, 6,8-Dihydro-5H-imidazo[2,1-c][1,4]oxazin-3-yl-[(7S)-2,7-dimethyl-3-(3,4,5-trifluorophenyl)-5,7-dihydro-4H-pyrazolo[3,4-c]pyridin-6-yl]methanone] was 717 nM; that for `C[C@H]1c2nn(C)c(-c3cc(F)c(F)c(F)c3)c2CCN1C(=O)c1ccc2nccn2n1` [Example 452, [(7S)-2,7-Dimethyl-3-(3,4,5-trifluorophenyl)-5,7-dihydro-4H-pyrazolo[3,4-c]pyridin-6-yl]-imidazo[1,2-b]pyridazin-6-yl-methanone] was 276 nM.
The same measure, in the same setting: next, `Cc1cn2nc(C(=O)N3CCc4c(nn(C)c4-c4cc(F)c(F)c(F)c4)[C@@H]3C)ccc2n1` [Example 453, [(7S)-2,7-Dimethyl-3-(3,4,5-trifluorophenyl)-5,7-dihydro-4H-pyrazolo[3,4-c]pyridin-6-yl]-(2-methylimidazo[1,2-b]pyridazin-6-yl)methanone]: 165 nM; `COc1cccn2ncc(C(=O)N3CCc4c(nn(C)c4-c4cc(F)c(F)c(F)c4)[C@@H]3C)c12` [Example 390, [(7S)-2,7-Dimethyl-3-(3,4,5-trifluorophenyl)-5,7-dihydro-4H-pyrazolo[3,4-c]pyridin-6-yl]-(4-methoxypyrazolo[1,5-a]pyridin-3-yl)methanone]: 12.6 nM; `C[C@H]1c2nn(C)c(-c3ccc(F)cc3Cl)c2CCN1C(=O)c1ccc2ncccc2c1` [Example 506, [(7S)-3-(2-Chloro-4-fluoro-phenyl)-2,7-dimethyl-5,7-dihydro-4H-pyrazolo[3,4-c]pyridin-6-yl]-(6-quinolyl)methanone]: 347 nM.

The experiment is the same for the next values; noted with them: 300 nM [Glycerol-1,3-3H]-oleyl glycerol, one hour incubation.
The compound `Cn1nc2c(c1-c1ccccc1)CCN(C(=O)c1cccc3cc[nH]c13)C2` [Example 45, (1H-Indol-7-yl)(2-methyl-3-phenyl-2,4,5,7-tetrahydro-6H-pyrazolo[3,4-c]pyridin-6-yl)methanone] showed an IC50 of 1460 nM.
On the same count and under the same terms, the value for `C[C@H]1c2nn(C)c(-c3cc(F)cc(F)c3)c2CCN1C(=O)c1ccccc1-n1nccn1` [Example 147, (S)-(2-(2H-1,2,3-Triazol-2-yl)phenyl)(3-(3,5-difluorophenyl)-2,7-dimethyl-2,4,5,7-tetrahydro-6H-pyrazolo[3,4-c]pyridin-6-yl)methanone] was 71.7 nM; that for `Cn1nc2c(c1-c1ccccc1)CCN(C(=O)c1cccc3ccccc13)C2` [Example 1, (2-Methyl-3-phenyl-2,4,5,7-tetrahydro-6H-pyrazolo[3,4-c]pyridin-6-yl)(naphthalen-1-yl)methanone] was 13 nM; that for `Cn1nc2c(c1-c1ccccc1)CCN(C(=O)c1c[nH]c3ccccc13)C2` [Example 44, (1H-Indol-3-yl)(2-methyl-3-phenyl-2,4,5,7-tetrahydro-6H-pyrazolo[3,4-c]pyridin-6-yl)methanone] was 319 nM.
`CC1c2nn(C)c(-c3cccc4c3ccn4C)c2CCN1C(=O)c1ccc2ncccc2c1` (stereo not shown) [Example 249, (2,7-Dimethyl-3-(1-methyl-1H-indol-4-yl)-2,4,5,7-tetrahydro-6H-pyrazolo[3,4-c]pyridin-6-yl)(quinolin-6-yl)methanone] showed an IC50 of 1530 nM. This IC50 is about 4.8-fold higher than that of the compound before.
Still for that read-out and setting: next, `C[C@H]1c2nn(C)c(-c3cc(F)c(F)c(F)c3)c2CCN1C(=O)c1cccc(-n2cccn2)n1` [Example 320, [(7S)-2,7-Dimethyl-3-(3,4,5-trifluorophenyl)-5,7-dihydro-4H-pyrazolo[3,4-c]pyridin-6-yl]-(6-pyrazol-1-yl-2-pyridyl)methanone]: 79 nM; `Cn1nc2c(c1-c1ccccc1)CCN(C(=O)c1cccc3cncn13)C2` [Example 79, Imidazo[1,5-a]pyridin-5-yl(2-methyl-3-phenyl-2,4,5,7-tetrahydro-6H-pyrazolo[3,4-c]pyridin-6-yl)methanone]: 1190 nM.
`COc1cnccc1C(=O)N1CCc2c(nn(C)c2-c2cc(F)c(F)c(F)c2)[C@@H]1C` [Example 311, [(7S)-2,7-Dimethyl-3-(3,4,5-trifluorophenyl)-5,7-dihydro-4H-pyrazolo[3,4-c]pyridin-6-yl]-(3-methoxy-4-pyridyl)methanone] came in with an IC50 of 87.1 nM.
Still for that read-out and setting: next, `CC1c2nn(C)c(-c3cc(F)cc(F)c3)c2CCN1C(=O)c1ccc2ncccc2c1` (stereo not shown) [Example 106, (3-(3,5-Difluorophenyl)-2,7-dimethyl-2,4,5,7-tetrahydro-6H-pyrazolo[3,4-c]pyridin-6-yl)(quinolin-6-yl)methanone]: 7.36 nM; `CC1c2nn(C)c(-c3cc(F)cc(F)c3)c2CCN1C(=O)c1ccc2ncccc2c1Cl` (stereo not shown) [Example 163, (5-Chloroquinolin-6-yl)(3-(3,5-difluorophenyl)-2,7-dimethyl-2,4,5,7-tetrahydro-6H-pyrazolo[3,4-c]pyridin-6-yl)methanone]: 11.8 nM; `C[C@H]1c2nn(C)c(-c3cc(F)c(F)c(F)c3)c2CCN1C(=O)c1cc(-n2cnnc2)cc(C(F)(F)F)c1` [Example 296, [(7S)-2,7-Dimethyl-3-(3,4,5-trifluorophenyl)-5,7-dihydro-4H-pyrazolo[3,4-c]pyridin-6-yl]-[3-(1,2,4-triazol-4-yl)-5-(trifluoromethyl)phenyl]methanone]: 608 nM.

The record behind these values is patent US11820766B2, “Monoacylglycerol lipase modulators” (Janssen Pharmaceutica NV, priority 2018, dated 2023).
